#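 Exposure lasted 48 hours, with cells grown in 96-well plates and compounds tested at five concentrations. TGI denotes the concentration required for complete inhibition of growth.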
# Columns and labels:
# Assay in all cases: growth of human tumour cells (NCI), 48 h
# UACC-257 melanoma = tested on: UACC-257 melanoma
# SK-OV-3 ovarian = tested on: SK-OV-3 ovarian
# SR leukemia = tested on: SR leukemia
# RPMI-8226 leukemia = tested on: RPMI-8226 leukemia
# LOX IMVI melanoma = tested on: LOX IMVI melanoma
# OVCAR-5 ovarian = tested on: OVCAR-5 ovarian
# NCI-H23 lung = tested on: NCI-H23 lung
# OVCAR-8 ovarian = tested on: OVCAR-8 ovarian
# CAKI-1 renal = tested on: CAKI-1 renal
# SN12C renal = tested on: SN12C renal
# IGROV1 ovarian = tested on: IGROV1 ovarian
# SF-295 CNS = tested on: SF-295 CNS
# NCI-H460 lung = tested on: NCI-H460 lung
# SK-MEL-2 melanoma = tested on: SK-MEL-2 melanoma
# MALME-3M melanoma = tested on: MALME-3M melanoma
# SNB-19 CNS = tested on: SNB-19 CNS
# M14 melanoma = tested on: M14 melanoma
# HCT-116 colon = tested on: HCT-116 colon
# UACC-62 melanoma = tested on: UACC-62 melanoma
# NCI-H226 lung = tested on: NCI-H226 lung
# COLO 205 colon = tested on: COLO 205 colon
# CCRF-CEM leukemia = tested on: CCRF-CEM leukemia
# BT-549 breast = tested on: BT-549 breast
# SK-MEL-5 melanoma = tested on: SK-MEL-5 melanoma
# HOP-62 NSCLC = tested on: HOP-62 NSCLC
# HCC-2998 colon = tested on: HCC-2998 colon
# TK-10 renal = tested on: TK-10 renal
# T-47D breast = tested on: T-47D breast
# K-562 leukemia = tested on: K-562 leukemia
# SF-268 CNS = tested on: SF-268 CNS
# MOLT-4 leukemia = tested on: MOLT-4 leukemia
# HOP-92 NSCLC = tested on: HOP-92 NSCLC
# EKVX NSCLC = tested on: EKVX NSCLC
# U251 CNS = tested on: U251 CNS
# SF-539 CNS = tested on: SF-539 CNS
# MDA-MB-435 = tested on: MDA-MB-435
# MDA-MB-231 breast = tested on: MDA-MB-231 breast
# SW-620 colon = tested on: SW-620 colon
# A549 NSCLC = tested on: A549 NSCLC
# NCI/ADR-RES ovarian = tested on: NCI/ADR-RES ovarian
# HCT-15 colon = tested on: HCT-15 colon
# MCF7 breast = tested on: MCF7 breast
# HS 578T breast = tested on: HS 578T breast
# NCI-H522 lung = tested on: NCI-H522 lung
# ACHN renal = tested on: ACHN renal
# 786-0 renal = tested on: 786-0 renal
# HT29 colon = tested on: HT29 colon
# KM12 colon = tested on: KM12 colon
# OVCAR-4 ovarian = tested on: OVCAR-4 ovarian
# OVCAR-3 ovarian = tested on: OVCAR-3 ovarian
# MDA-N = tested on: MDA-N
# UO-31 renal = tested on: UO-31 renal
# A498 renal = tested on: A498 renal
# PC-3 prostate = tested on: PC-3 prostate
# HL-60(TB) leukemia = tested on: HL-60(TB) leukemia
# SK-MEL-28 melanoma = tested on: SK-MEL-28 melanoma
# RXF 393 renal = tested on: RXF 393 renal
# SNB-75 CNS = tested on: SNB-75 CNS
# DU-145 prostate = tested on: DU-145 prostate
compound,measurement,setting,value
CCOC(=O)Nn1cnnc1Cc1ccccc1,TGI,UACC-257 melanoma,> 100 µM
same,TGI,SK-OV-3 ovarian,> 100 µM
same,TGI,SR leukemia,> 100 µM
same,TGI,RPMI-8226 leukemia,> 100 µM
same,TGI,LOX IMVI melanoma,> 100 µM
same,TGI,OVCAR-5 ovarian,> 100 µM
same,TGI,NCI-H23 lung,> 100 µM
same,TGI,OVCAR-8 ovarian,> 100 µM
same,TGI,CAKI-1 renal,> 100 µM
same,TGI,SN12C renal,> 100 µM
same,TGI,IGROV1 ovarian,> 100 µM
same,TGI,SF-295 CNS,> 100 µM
same,TGI,NCI-H460 lung,> 100 µM
same,TGI,SK-MEL-2 melanoma,> 100 µM
same,TGI,MALME-3M melanoma,> 100 µM
same,TGI,SNB-19 CNS,> 100 µM
same,TGI,M14 melanoma,> 100 µM
same,TGI,HCT-116 colon,> 100 µM
same,TGI,UACC-62 melanoma,> 100 µM
same,TGI,NCI-H226 lung,> 100 µM
same,TGI,COLO 205 colon,> 100 µM
same,TGI,CCRF-CEM leukemia,> 100 µM
same,TGI,BT-549 breast,> 100 µM
same,TGI,SK-MEL-5 melanoma,> 100 µM
same,TGI,HOP-62 NSCLC,> 100 µM
same,TGI,HCC-2998 colon,> 100 µM
same,TGI,TK-10 renal,> 100 µM
same,TGI,T-47D breast,> 100 µM
same,TGI,K-562 leukemia,> 100 µM
same,TGI,SF-268 CNS,> 100 µM
same,TGI,MOLT-4 leukemia,> 100 µM
same,TGI,HOP-92 NSCLC,> 100 µM
same,TGI,EKVX NSCLC,> 100 µM
same,TGI,U251 CNS,> 100 µM
same,TGI,SF-539 CNS,> 100 µM
same,TGI,MDA-MB-435,> 100 µM
same,TGI,MDA-MB-231 breast,> 100 µM
same,TGI,SW-620 colon,> 100 µM
same,TGI,A549 NSCLC,> 100 µM
same,TGI,NCI/ADR-RES ovarian,> 100 µM
same,TGI,HCT-15 colon,> 100 µM
same,TGI,MCF7 breast,> 100 µM
same,TGI,HS 578T breast,81.4 µM
same,TGI,NCI-H522 lung,> 100 µM
same,TGI,ACHN renal,> 100 µM
same,TGI,786-0 renal,> 100 µM
same,TGI,HT29 colon,> 100 µM
same,TGI,KM12 colon,> 100 µM
same,TGI,OVCAR-4 ovarian,> 100 µM
same,TGI,OVCAR-3 ovarian,> 100 µM
same,TGI,MDA-N,> 100 µM
same,TGI,UO-31 renal,> 100 µM
same,TGI,A498 renal,> 100 µM
same,TGI,PC-3 prostate,> 100 µM
CC(C)/C(Cl)=N/OC(NC(=O)Nc1ccc(Cl)c(Cl)c1)(C(F)(F)F)C(F)(F)F,TGI,HL-60(TB) leukemia,6.39 µM
same,TGI,UACC-257 melanoma,25.9 µM
same,TGI,SK-OV-3 ovarian,32.3 µM
same,TGI,SR leukemia,> 100 µM
same,TGI,RPMI-8226 leukemia,4.7 µM
same,TGI,LOX IMVI melanoma,14.7 µM
same,TGI,OVCAR-5 ovarian,38.4 µM
same,TGI,NCI-H23 lung,38.2 µM
same,TGI,OVCAR-8 ovarian,34.8 µM
same,TGI,CAKI-1 renal,3.61 µM
same,TGI,SN12C renal,33.9 µM
same,TGI,IGROV1 ovarian,35.2 µM
same,TGI,SF-295 CNS,38.5 µM
same,TGI,NCI-H460 lung,56.4 µM
same,TGI,MALME-3M melanoma,4.55 µM
same,TGI,SNB-19 CNS,41 µM
same,TGI,M14 melanoma,18.3 µM
same,TGI,HCT-116 colon,19.7 µM
same,TGI,UACC-62 melanoma,37.2 µM
same,TGI,NCI-H226 lung,42.8 µM
same,TGI,COLO 205 colon,9.27 µM
same,TGI,CCRF-CEM leukemia,5.71 µM
same,TGI,BT-549 breast,25.7 µM
same,TGI,SK-MEL-5 melanoma,29.3 µM
same,TGI,HOP-62 NSCLC,42.5 µM
same,TGI,HCC-2998 colon,36 µM
same,TGI,TK-10 renal,31.2 µM
same,TGI,T-47D breast,19.4 µM
same,TGI,K-562 leukemia,8.86 µM
same,TGI,SF-268 CNS,39.4 µM
same,TGI,MOLT-4 leukemia,12 µM
same,TGI,HOP-92 NSCLC,29.7 µM
same,TGI,EKVX NSCLC,38.1 µM
same,TGI,U251 CNS,33.2 µM
same,TGI,SF-539 CNS,33.2 µM
same,TGI,MDA-MB-435,33.8 µM
same,TGI,MDA-MB-231 breast,34.2 µM
same,TGI,SW-620 colon,3.92 µM
same,TGI,A549 NSCLC,72.4 µM
same,TGI,NCI/ADR-RES ovarian,31.7 µM
same,TGI,HCT-15 colon,28.9 µM
same,TGI,SK-MEL-28 melanoma,35.3 µM
same,TGI,MCF7 breast,> 50.2 µM
same,TGI,HS 578T breast,99.4 µM
same,TGI,RXF 393 renal,9.23 µM
same,TGI,NCI-H522 lung,3.31 µM
same,TGI,ACHN renal,24.9 µM
same,TGI,786-0 renal,22.2 µM
same,TGI,HT29 colon,53.7 µM
same,TGI,KM12 colon,36.1 µM
same,TGI,OVCAR-4 ovarian,25.8 µM
same,TGI,SNB-75 CNS,31.3 µM
same,TGI,OVCAR-3 ovarian,11.3 µM
same,TGI,MDA-N,32.3 µM
same,TGI,UO-31 renal,31.3 µM
same,TGI,DU-145 prostate,31.9 µM
same,TGI,A498 renal,34.7 µM
same,TGI,PC-3 prostate,27.3 µM

# — PubChem BioAssay (NCI)
